According to ChEMBL document CHEMBL4507301 (2021):

Tests used:
[1] = target: Alpha-1D adrenergic receptor (Rattus norvegicus) (UniProt P23944); assay: Inhibition of phenylephrine-induced contractions in bladder strips from rats with bladder outlet obstruction; format: tissue-based; conditions: Urinary bladder
[2] = target: Beta-2 adrenergic receptor (Homo sapiens) (UniProt P07550); assay: beta2 Eurofins-Panlabs ligand profiling; conditions: Compound concentration 10.0 uM
[3] = target: Alpha-2B adrenergic receptor (Homo sapiens, UniProt P18089); assay: alpha2B Eurofins-Panlabs ligand profiling
[4] = target: Serotonin 1 (5-HT1) receptor (Homo sapiens) (UniProt P30939+P28222+P08908+P28221+P28566); assay: 5-HT1 Eurofins-Panlabs ligand profiling; format: protein assay; conditions: Compound concentration 10.0 uM
[5] = target: 5-hydroxytryptamine receptor 3A (Homo sapiens) (UniProt P46098); conditions: Compound concentration 10.0 uM
[6] = target: Beta-1 adrenergic receptor (Homo sapiens) (UniProt P08588); assay: beta1 Eurofins-Panlabs ligand profiling; conditions: Compound concentration 10.0 uM
[7] = target: T1, Alpha-1A adrenergic receptor (Homo sapiens, UniProt P35348); assay: GPCRScan assay: inhibition of Alpha1A; parameters: radioligand conc. used [nm] 0.2 - 1.0, parental cells stable HEK
[8] = target: Muscarinic acetylcholine receptor M4 (Homo sapiens) (UniProt P08173); conditions: Compound concentration 10.0 uM
[9] = target: T1, Alpha-1A adrenergic receptor

T1 sequence (P35348 whole entry): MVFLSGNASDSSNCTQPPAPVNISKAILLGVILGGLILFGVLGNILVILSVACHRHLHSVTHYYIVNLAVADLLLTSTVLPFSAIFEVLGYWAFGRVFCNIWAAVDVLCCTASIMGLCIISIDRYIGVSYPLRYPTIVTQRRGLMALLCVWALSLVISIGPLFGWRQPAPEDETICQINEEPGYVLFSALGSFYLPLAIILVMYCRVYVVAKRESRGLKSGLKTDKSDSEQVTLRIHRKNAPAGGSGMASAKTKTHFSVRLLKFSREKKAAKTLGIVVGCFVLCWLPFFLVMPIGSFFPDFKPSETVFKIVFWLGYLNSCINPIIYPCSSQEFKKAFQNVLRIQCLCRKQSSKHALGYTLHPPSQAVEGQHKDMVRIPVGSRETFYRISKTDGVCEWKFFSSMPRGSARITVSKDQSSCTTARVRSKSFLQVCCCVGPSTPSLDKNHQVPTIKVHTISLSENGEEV
Chain of Muscarinic acetylcholine receptor M4 (Homo sapiens) (P08173 whole entry): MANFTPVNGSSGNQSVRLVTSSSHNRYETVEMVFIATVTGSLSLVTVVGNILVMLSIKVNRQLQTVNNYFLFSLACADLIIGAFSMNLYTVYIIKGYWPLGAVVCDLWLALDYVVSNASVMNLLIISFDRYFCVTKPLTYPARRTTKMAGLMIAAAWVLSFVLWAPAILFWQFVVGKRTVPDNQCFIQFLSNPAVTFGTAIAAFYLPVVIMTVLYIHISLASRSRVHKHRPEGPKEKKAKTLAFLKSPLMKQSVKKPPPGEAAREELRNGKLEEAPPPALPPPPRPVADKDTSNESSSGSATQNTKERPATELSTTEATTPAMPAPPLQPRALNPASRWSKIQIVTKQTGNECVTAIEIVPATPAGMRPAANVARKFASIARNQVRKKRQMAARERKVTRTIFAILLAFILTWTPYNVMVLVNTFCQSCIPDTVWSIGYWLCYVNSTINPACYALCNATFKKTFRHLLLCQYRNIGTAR
Chain of 5-hydroxytryptamine receptor 3A (Homo sapiens) (P46098 whole entry): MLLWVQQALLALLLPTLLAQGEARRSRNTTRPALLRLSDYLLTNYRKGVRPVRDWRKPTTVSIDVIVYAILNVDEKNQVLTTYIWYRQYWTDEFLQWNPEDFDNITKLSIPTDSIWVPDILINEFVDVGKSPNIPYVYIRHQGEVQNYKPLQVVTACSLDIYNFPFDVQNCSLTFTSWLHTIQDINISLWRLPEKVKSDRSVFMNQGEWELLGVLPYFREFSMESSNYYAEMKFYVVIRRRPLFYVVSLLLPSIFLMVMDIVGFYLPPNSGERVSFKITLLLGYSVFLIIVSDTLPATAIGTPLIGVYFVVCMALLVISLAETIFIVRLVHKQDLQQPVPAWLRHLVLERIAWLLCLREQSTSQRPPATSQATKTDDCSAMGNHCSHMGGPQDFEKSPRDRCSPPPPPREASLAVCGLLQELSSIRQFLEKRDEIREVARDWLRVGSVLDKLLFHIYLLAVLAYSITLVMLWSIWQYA
Chain of Beta-2 adrenergic receptor (Homo sapiens) (P07550 whole entry, looked up): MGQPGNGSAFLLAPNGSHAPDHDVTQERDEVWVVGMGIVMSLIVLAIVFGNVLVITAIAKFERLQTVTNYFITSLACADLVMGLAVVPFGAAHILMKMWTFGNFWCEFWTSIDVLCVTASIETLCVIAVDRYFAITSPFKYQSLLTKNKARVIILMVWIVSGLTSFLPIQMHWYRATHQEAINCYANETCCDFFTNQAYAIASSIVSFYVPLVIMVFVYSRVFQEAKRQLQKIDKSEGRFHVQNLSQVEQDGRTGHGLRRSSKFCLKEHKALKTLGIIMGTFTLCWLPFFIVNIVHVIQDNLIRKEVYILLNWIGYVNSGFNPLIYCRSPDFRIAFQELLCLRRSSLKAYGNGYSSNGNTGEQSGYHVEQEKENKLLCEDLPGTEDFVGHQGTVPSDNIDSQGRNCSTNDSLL
Chain of Alpha-2B adrenergic receptor (P18089 whole entry): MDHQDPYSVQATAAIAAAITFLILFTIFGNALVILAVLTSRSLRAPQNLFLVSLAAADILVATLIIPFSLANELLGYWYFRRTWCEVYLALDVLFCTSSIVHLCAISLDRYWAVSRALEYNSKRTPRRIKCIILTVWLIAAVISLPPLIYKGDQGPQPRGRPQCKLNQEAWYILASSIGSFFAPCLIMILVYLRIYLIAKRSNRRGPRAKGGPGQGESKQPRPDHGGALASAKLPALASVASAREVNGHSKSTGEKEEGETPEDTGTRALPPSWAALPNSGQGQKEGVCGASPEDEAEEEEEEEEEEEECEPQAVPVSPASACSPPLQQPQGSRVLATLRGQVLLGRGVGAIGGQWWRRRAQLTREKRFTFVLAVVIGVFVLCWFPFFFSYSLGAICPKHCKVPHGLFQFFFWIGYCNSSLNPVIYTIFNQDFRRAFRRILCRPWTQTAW
Chain of Beta-1 adrenergic receptor (Homo sapiens) (P08588 whole entry, looked up): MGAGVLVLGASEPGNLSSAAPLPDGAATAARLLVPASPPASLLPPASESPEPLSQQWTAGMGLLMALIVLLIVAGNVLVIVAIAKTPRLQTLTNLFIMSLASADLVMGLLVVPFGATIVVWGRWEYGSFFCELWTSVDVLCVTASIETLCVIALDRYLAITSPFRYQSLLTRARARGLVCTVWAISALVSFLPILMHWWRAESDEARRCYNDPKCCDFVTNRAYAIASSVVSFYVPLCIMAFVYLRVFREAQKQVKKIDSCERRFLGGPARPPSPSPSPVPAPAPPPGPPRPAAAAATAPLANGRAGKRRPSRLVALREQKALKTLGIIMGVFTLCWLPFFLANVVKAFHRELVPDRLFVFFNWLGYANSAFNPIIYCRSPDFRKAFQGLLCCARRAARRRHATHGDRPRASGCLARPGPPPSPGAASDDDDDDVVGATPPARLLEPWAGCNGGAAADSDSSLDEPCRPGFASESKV
Chain of Alpha-1D adrenergic receptor (Rattus norvegicus) (P23944 whole entry): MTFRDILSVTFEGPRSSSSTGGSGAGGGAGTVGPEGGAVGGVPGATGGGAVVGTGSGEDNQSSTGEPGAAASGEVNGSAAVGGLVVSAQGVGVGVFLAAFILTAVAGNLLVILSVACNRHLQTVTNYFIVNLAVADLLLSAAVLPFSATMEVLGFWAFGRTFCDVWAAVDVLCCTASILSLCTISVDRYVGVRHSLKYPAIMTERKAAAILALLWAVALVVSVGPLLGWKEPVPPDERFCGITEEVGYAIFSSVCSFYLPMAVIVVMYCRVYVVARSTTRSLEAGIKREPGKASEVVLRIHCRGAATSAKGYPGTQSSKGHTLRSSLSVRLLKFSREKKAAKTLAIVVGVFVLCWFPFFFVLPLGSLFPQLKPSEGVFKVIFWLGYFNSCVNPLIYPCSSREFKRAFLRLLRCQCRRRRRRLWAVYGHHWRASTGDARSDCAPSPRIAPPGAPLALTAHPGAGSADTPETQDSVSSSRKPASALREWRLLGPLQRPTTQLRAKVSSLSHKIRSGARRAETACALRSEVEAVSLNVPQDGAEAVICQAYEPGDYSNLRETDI

| SMILES | IC30 [1] | inhibition [2] | IC50 [3] | inhibition [4] | inhibition [5] | inhibition [6] | Ki [7] | inhibition [8] | Ki [9] |
| --- | --- | --- | --- | --- | --- | --- | --- | --- | --- |
| C[C@H](c1cccc(C#N)c1)n1cc(Cl)cc(C(N)=O)c1=N [(R)-9s] | 0.015 µM | 4% | 1.4 µM | 0% | -5.97% | -5% | – | – | – |
| C[C@@H](c1cccc(C#N)c1)n1cc(Cl)cc(C(N)=O)c1=N [(S)-9s] | – | – | – | – | – | – | 1.07 µM | -6.48% | > 2.7 µM (not active) |
